The values below come from article PMC3155652 (Journal of inorganic biochemistry, 2011).

The kon is the rate constant with which the complex forms.

The conditions of assay [1]: cited from earlier work; for interdomain electron transfer FMN to heme: laser flash photolysis, in the presence of CaM, ref [50], [51]; for rate of electron transfer to heme from FMN: ref [49].
Another assay concerns holo CaM. To be noted: holo CaM to immobilized target peptide, ref [21]; cited from earlier work.
Assay [2] addresses T1, holo Alexa-CaM (Homo sapiens, UniProt P0DP23, T111W/T35C). The experiment in a line: Apparent Kd calculated as koff/kon. It is filed as binding.
For assay [3], the target named is T1, holo Alexa-CaM. It is filed as binding. To be noted: 2 mM EDTA, stopped-flow.
In assay [4] the target is T1, holo Alexa-CaM. The experiment in a line: Stopped-flow association kinetics of NOS target peptides with holo Alexa-CaM. It is filed as binding. Particulars: pH 8.

Ends that are not written are not given here.

With “rat nNOS: rat neuronal NOS in the presence of CaM”, the “interdomain electron transfer FMN to heme” value in assay [1] was 36 s⁻¹.

Regarding human iNOS: human inducible NOS, in assay [1], the “interdomain electron transfer FMN to heme” value was 34 s⁻¹.

As for “nNOS725–750: immobilized nNOS target peptide of previous SPR study (NGTPTKRRAIGFKKLAEAVKFSAKLM; UniProt P29475 725-750, looked up, fragment)”, in the assay with holo CaM, the “kon (binding rate by SPR)” value is 158000 M⁻¹ s⁻¹.

For the molecule eNOS: endothelial NOS, the “rate of electron transfer to heme from FMN” value (“rate of electron transfer” below) in assay [1] was 2 to 5 s⁻¹.

As to iNOS: inducible NOS, the “rate of electron transfer” value in assay [1] was 11 s⁻¹.

As for RRAIGFKKLAEAVKFSAKLMGGAM [nNOS726–749], on holo Alexa-CaM [2], the Kd is 5.6 nM. Besides, the “fast phase, share of overall FW110 increase” value on holo Alexa-CaM [3] was found to be 81%. The molecule further gave a kon on holo Alexa-CaM [4] of 6.6e+08 M⁻¹ s⁻¹.

Consider `CC[C@H](C)[C@H](NC(=O)[C@H](CCCCN)NC(=O)[C@@H](NC(=O)[C@H](C)NC(=O)[C@H](CC(N)=O)NC(=O)[C@H](C)NC(=O)[C@@H](NC(=O)[C@H](CCC(=O)O)NC(=O)[C@H](CCCCN)NC(=O)[C@H](Cc1ccccc1)NC(=O)[C@@H](NC(=O)[C@H](CCCCN)NC(=O)[C@H](CCCCN)NC(=O)[C@@H](N)CCCNC(=N)N)[C@@H](C)O)C(C)C)C(C)C)C(=O)N[C@@H](CO)C(=O)N[C@@H](C)C(=O)N[C@@H](CO)C(=O)N[C@@H](CC(C)C)C(=O)N[C@@H](CCSC)C(=O)NCC(=O)O` [eNOS492–511], for which the “fast phase, share of overall FW110 increase” value at holo Alexa-CaM [3] came to 83%.

B1: murine iNOS: murine inducible NOS (protein, UniProt P29477 1-1144, looked up)
Nitric oxide synthase, …: MACPWKFLFKVKSYQSDLKEEKDINNNVKKTPCAVLSPTIQDDPKSHQNGSPQLLTGTAQNVPESLDKLHVTSTRPQYVRIKNWGSGEILHDTLHHKATSDFTCKSKSCLGSIMNPKSLTRGPRDKPTPLEELLPHAIEFINQYYGSFKEAKIEEHLARLEAVTKEIETTGTYQLTLDELIFATKMAWRNAPRCIGRIQWSNLQVFDARNCSTAQEMFQHICRHILYATNNGNIRSAITVFPQRSDGKHDFRLWNSQLIRYAGYQMPDGTIRGDAATLEFTQLCIDLGWKPRYGRFDVLPLVLQADGQDPEVFEIPPDLVLEVTMEHPKYEWFQELGLKWYALPAVANMLLEVGGLEFPACPFNGWYMGTEIGVRDFCDTQRYNILEEVGRRMGLETHTLASLWKDRAVTEINVAVLHSFQKQNVTIMDHHTASESFMKHMQNEYRARGGCPADWIWLVPPVSGSITPVFHQEMLNYVLSPFYYYQIEPWKTHIWQNEKLRPRRREIRFRVLVKVVFFASMLMRKVMASRVRATVLFATETGKSEALARDLATLFSYAFNTKVVCMDQYKASTLEEEQLLLVVTSTFGNGDCPSNGQTLKKSLFMLRELNHTFRYAVFGLGSSMYPQFCAFAHDIDQKLSHLGASQLAPTGEGDELSGQEDAFRSWAVQTFRAACETFDVRSKHHIQIPKRFTSNATWEPQQYRLIQSPEPLDLNRALSSIHAKNVFTMRLKSQQNLQSEKSSRTTLLVQLTFEGSRGPSYLPGEHLGIFPGNQTALVQGILERVVDCPTPHQTVCLEVLDESGSYWVKDKRLPPCSLSQALTYFLDITTPPTQLQLHKLARFATDETDRQRLEALCQPSEYNDWKFSNNPTFLEVLEEFPSLHVPAAFLLSQLPILKPRYYSISSSQDHTPSEVHLTVAVVTYRTRDGQGPLHHGVCSTWIRNLKPQDPVPCFVRSVSGFQLPEDPSQPCILIGPGTGIAPFRSFWQQRLHDSQHKGLKGGRMSLVFGCRHPEEDHLYQEEMQEMVRKRVLFQVHTGYSRLPGKPKVYVQDILQKQLANEVLSVLHGEQGHLYICGDVRMARDVATTLKKLVATKLNLSEEQVEDYFFQLKSQKRYHEDIFGAVFSYGAKKGSALEEPKATRL
Regarding B1, the “interdomain electron transfer FMN to heme” value in assay [1] was 35 s⁻¹.

B2: nNOS: neuronal NOS (protein, UniProt P29475 1-1434, looked up)
Nitric oxide synthase 1: MEDHMFGVQQIQPNVISVRLFKRKVGGLGFLVKERVSKPPVIISDLIRGGAAEQSGLIQAGDIILAVNGRPLVDLSYDSALEVLRGIASETHVVLILRGPEGFTTHLETTFTGDGTPKTIRVTQPLGPPTKAVDLSHQPPAGKEQPLAVDGASGPGNGPQHAYDDGQEAGSLPHANGLAPRPPGQDPAKKATRVSLQGRGENNELLKEIEPVLSLLTSGSRGVKGGAPAKAEMKDMGIQVDRDLDGKSHKPLPLGVENDRVFNDLWGKGNVPVVLNNPYSEKEQPPTSGKQSPTKNGSPSKCPRFLKVKNWETEVVLTDTLHLKSTLETGCTEYICMGSIMHPSQHARRPEDVRTKGQLFPLAKEFIDQYYSSIKRFGSKAHMERLEEVNKEIDTTSTYQLKDTELIYGAKHAWRNASRCVGRIQWSKLQVFDARDCTTAHGMFNYICNHVKYATNKGNLRSAITIFPQRTDGKHDFRVWNSQLIRYAGYKQPDGSTLGDPANVQFTEICIQQGWKPPRGRFDVLPLLLQANGNDPELFQIPPELVLEVPIRHPKFEWFKDLGLKWYGLPAVSNMLLEIGGLEFSACPFSGWYMGTEIGVRDYCDNSRYNILEEVAKKMNLDMRKTSSLWKDQALVEINIAVLYSFQSDKVTIVDHHSATESFIKHMENEYRCRGGCPADWVWIVPPMSGSITPVFHQEMLNYRLTPSFEYQPDPWNTHVWKGTNGTPTKRRAIGFKKLAEAVKFSAKLMGQAMAKRVKATILYATETGKSQAYAKTLCEIFKHAFDAKVMSMEEYDIVHLEHETLVLVVTSTFGNGDPPENGEKFGCALMEMRHPNSVQEERKSYKVRFNSVSSYSDSQKSSGDGPDLRDNFESAGPLANVRFSVFGLGSRAYPHFCAFGHAVDTLLEELGGERILKMREGDELCGQEEAFRTWAKKVFKAACDVFCVGDDVNIEKANNSLISNDRSWKRNKFRLTFVAEAPELTQGLSNVHKKRVSAARLLSRQNLQSPKSSRSTIFVRLHTNGSQELQYQPGDHLGVFPGNHEDLVNALIERLEDAPPVNQMVKVELLEERNTALGVISNWTDELRLPPCTIFQAFKYYLDITTPPTPLQLQQFASLATSEKEKQRLLVLSKGLQEYEEWKWGKNPTIVEVLEEFPSIQMPATLLLTQLSLLQPRYYSISSSPDMYPDEVHLTVAIVSYRTRDGEGPIHHGVCSSWLNRIQADELVPCFVRGAPSFHLPRNPQVPCILVGPGTGIAPFRSFWQQRQFDIQHKGMNPCPMVLVFGCRQSKIDHIYREETLQAKNKGVFRELYTAYSREPDKPKKYVQDILQEQLAESVYRALKEQGGHIYVCGDVTMAADVLKAIQRIMTQQGKLSAEDAGVFISRMRDDNRYHEDIFGVTLRTYEVTNRLRSESIAFIEESKKDTDEVFSS
As for B2, in assay [1] (absence of CaM, ref [51]), the “interdomain electron transfer FMN to heme in absence of CaM” value is reported as “No such redox event was observed”. Further, the “rate of electron transfer” value in assay [1] was 40 to 50 s⁻¹.
